Results reported in patent US11807650B2, “NMDA receptor modulators and uses thereof” (Novartis AG, priority 2016, dated 2023).

Legend:
[1] = biological target: T1, human GRIN1 (variant NR1-3) and GRIN2D expressed in HEK293 cells (Homo sapiens, UniProt O15399); assay: GluN2D PAM CIQ fluorescence assay (Fluo-8 calcium, FDSS 6000); assay type: cell-based; settings: relative to CIQ (100 uM) = 100%, read-out: NR2D Percent CIQ Avg Max Measured Effect
T1 construct: GenScript (GRIN2D synthesis) SC115601; host or cells: HEK293
T1 sequence (O15399 28-1336, other chains not shown): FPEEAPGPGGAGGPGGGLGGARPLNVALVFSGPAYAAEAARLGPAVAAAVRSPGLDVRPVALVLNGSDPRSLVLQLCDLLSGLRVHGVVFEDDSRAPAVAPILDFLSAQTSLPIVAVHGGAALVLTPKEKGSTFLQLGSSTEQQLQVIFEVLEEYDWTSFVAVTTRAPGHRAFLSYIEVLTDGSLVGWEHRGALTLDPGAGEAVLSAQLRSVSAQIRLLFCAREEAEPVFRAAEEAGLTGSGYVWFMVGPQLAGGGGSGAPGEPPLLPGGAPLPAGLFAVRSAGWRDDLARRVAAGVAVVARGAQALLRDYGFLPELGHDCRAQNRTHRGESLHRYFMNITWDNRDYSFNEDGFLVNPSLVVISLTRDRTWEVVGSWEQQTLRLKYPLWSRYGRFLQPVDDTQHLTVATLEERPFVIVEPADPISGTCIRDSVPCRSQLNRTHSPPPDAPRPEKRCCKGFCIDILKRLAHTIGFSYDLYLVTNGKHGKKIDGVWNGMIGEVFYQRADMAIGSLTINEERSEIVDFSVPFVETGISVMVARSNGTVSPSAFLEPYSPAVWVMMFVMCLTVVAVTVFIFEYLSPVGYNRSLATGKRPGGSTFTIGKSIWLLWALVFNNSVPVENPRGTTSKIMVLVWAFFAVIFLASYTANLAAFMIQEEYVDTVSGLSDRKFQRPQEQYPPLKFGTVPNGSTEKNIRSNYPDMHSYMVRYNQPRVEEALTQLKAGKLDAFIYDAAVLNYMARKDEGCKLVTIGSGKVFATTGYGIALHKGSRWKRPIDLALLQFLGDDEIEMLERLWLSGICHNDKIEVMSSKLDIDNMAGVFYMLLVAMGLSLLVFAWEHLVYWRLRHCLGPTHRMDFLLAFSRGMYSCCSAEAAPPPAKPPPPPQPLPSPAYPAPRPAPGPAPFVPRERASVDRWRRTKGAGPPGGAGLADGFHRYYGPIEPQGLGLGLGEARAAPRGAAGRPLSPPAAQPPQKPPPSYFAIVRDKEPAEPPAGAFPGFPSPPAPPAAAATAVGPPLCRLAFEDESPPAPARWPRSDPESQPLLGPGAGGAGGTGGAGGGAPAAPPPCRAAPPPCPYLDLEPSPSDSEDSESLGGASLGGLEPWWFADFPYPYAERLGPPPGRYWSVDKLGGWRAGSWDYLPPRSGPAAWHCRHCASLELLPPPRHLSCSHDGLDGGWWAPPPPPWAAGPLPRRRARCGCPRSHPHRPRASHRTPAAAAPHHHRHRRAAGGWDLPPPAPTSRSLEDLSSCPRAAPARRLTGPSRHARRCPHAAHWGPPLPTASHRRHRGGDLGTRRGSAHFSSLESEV
Protocol: GluN2D PAM CIO Flourescence AssayHEK293 cells were transfected to express human GRIN1 (variant NR1-3, Origene, SKU #: SC115601, Rockville, Md.) and GRIN2D (NCBI locus NM_000836, sequence optimized and synthesized by GenScript) and grown as an adherent monolayer at 37° C., 5% CO2 in DMEM/Ham's F12+10% FBS (Hyclone SH3007.03T in the presence of 2.5 mM ARL-15896 (AdooQ Bioscience, Irvine Calif.). To prepare the cells for an experiment, they were rinsed with Dulbecco's PBS (Ca^2+ and Mg^2+ free) and detached from the flask with TrypLE™ Express (Life Technologies, Carlsbad, Calif.) using the manufacturer's recommended methods. Cells collected from the flask were washed twice in Ca^2+/Mg^2+-free Hanks Balanced Salt Solution+20 mM HEPES (HBSS), and counted and assessed for viability with trypan blue. Washed cells were then dye-loaded by resuspending in Fluo-8/AM calcium sensitive dye plus Component B (AAT Bioquest, Sunnyvale, Calif.) diluted in HBSS. To allow cells to take up fluo-8 dye, they were incubated in the dark for 15 min at 37° C., followed by 30 min at 22-25° C. After dye-loading, cells were washed and resuspended in HBSS and plated in 384-well plates (Falcon 353962; Corning, Big Flats, N.Y.) at 20,000-30,000 cells/well in a final volume of 25 μl/well. The cell plates were centrifuged at 200×g, for 2 minutes at 21° C., to create a monolayer of cells at the bottom of the wells.
To initiate an assay, 10 μl of test compound or buffer was added to each well of the cell plate and pre-incubated for 10 minutes in the dark. After 10 minutes, the cell plate was placed in a FDSS 6000 plate reader (Hamamatsu Photonics, Middlesex, N.J.); baseline fluorescence readings were collected for 20 seconds. Next, 25 μl of agonist solution (3 μM glutamate, 3 μM glycine, and 1 mM Ca^2+ in HBSS) was added and the change in fluorescence was recorded for 3 minutes.
Results were calculated by comparing the effects of test compounds to that of the literature standard GluN2C/D PAM CIQ (100 uM). The increase in fluorescence in the presence of CIQ minus the increase induced by glutamate+glycine alone was set to 100%. Responses induced by compounds that were larger than gain the presence of the standard concentration of CIQ were greater than 100% and lesser responses were less than 100%.

[2] = biological target: T2, human GRIN1 (transcript variant NR1-3) and GRIN2D expressed in Xenopus oocytes (Homo sapiens, UniProt O15399); assay: NR2D oocyte potentiation assay (two-electrode voltage clamp); assay type: cell-based; settings: 10 uM test compound; glutamate and glycine 10 μM each; holding potential −40 mV
T2 construct: GenScript (GRIN2D synthesis) SC115601; host or cells: Xenopus oocytes injected with cRNA (1 GluN1 : 2 GluN2)
T2 sequence (O15399 28-1336, other chains not shown): as above
How it was run: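 Xenopus oocytes were defolliculated with collagenase, then injected with 50 nL of cRNA encoding human GluN1 (NR1-3 variant) and GluN2D mixed 1:2 and kept 72 h at 16° C. Two-electrode voltage clamp at −40 mV recorded currents; after 10 μM glutamate plus 10 μM glycine reached plateau, test compound was added until a new plateau formed.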

SMILES	Emax [1] [%]	activation at 10 µM [2] [%]	NR2D Oocyte % Potentiation @ 10 uM [2]
CC(C)(C)c1ccc(-c2nc3n(c(=O)c2C#N)CC(O)CS3)cc1 (stereo not shown) [Example 200, 8-(4-tert-butylphenyl)-3,4-dihydro-3-hydroxy-6-oxo-2H,6H-pyrimido[2,1-b][1,3]thiazine-7-carbonitrile]	50 to 100	< 10	–
C[C@@H]1CSc2nc(-c3ccc(C(C)(C)C)nc3)c(C#N)c(=O)n2C1 [Example 45, (S)-8-(6-(tert-butyl)pyridin-3-yl)-3-methyl-6-oxo-3,4-dihydro-2H,6H-pyrimido[2,1-b][1,3]thiazine-7-carbonitrile]	> 200	> 1000	–
N#Cc1c(-c2ccc(Cl)cc2)nc2n(c1=O)CCS2 [Example 209, 7-(4-chlorophenyl)-5-oxo-2H,3H,5H-[1,3]thiazolo[3,2-a]pyrimidine-6-carbonitrile]	10 to 50	–	Inhibitor
N#Cc1c(-c2cnc(C3CC3)nc2)nc2n(c1=O)CCCS2 [Example 178, 8-(2-cyclopropylpyrimidin-5-yl)-6-oxo-2H,3H,4H,6H-pyrimido[2,1-b][1,3]thiazine-7-carbonitrile]	100 to 200	10 to 100	–
Cc1ccc(-c2ccc(-c3nc4n(c(=O)c3C#N)CCCS4)c(F)c2)cc1 [Example 197, 8-[2-fluoro-4-(4-methylphenyl)phenyl]-6-oxo-2H,3H,4H,6H-pyrimido[2,1-b][1,3]thiazine-7-carbonitrile]	10 to 50	10 to 100	–
C[C@@H]1CSc2nc(-c3ccc(C(C)(C)C)nc3)c(C#N)c(=N)n2C1 [Example 65, (S)-8-(6-(tert-butyl)pyridin-3-yl)-6-imino-3-methyl-3,4-dihydro-2H,6H-pyrimido[2,1-b][1,3]thiazine-7-carbonitrile]	> 200	> 1000	–
C[C@H]1CSc2nc(-c3ccc(C(C)(C)C)nc3)c(C#N)c(=N)n2C1 [Example 64, (R)-8-(6-(tert-butyl)pyridin-3-yl)-6-imino-3-methyl-3,4-dihydro-2H,6H-pyrimido[2,1-b][1,3]thiazine-7-carbonitrile]	100 to 200	100 to 500	–
CC(C)(C)c1ncc(-c2nc3n(c(=O)c2C#N)CCCS3)cn1 [Example 176, 8-(2-tert-butylpyrimidin-5-yl)-6-oxo-2H,3H,4H,6H-pyrimido[2,1-b][1,3]thiazine-7-carbonitrile]	100 to 200	500 to 1000	–
CC1CCSc2nc(-c3ccc(C(C)(C)C)nc3)c(C#N)c(=O)n21 (stereo not shown) [Example 50, 8-(6-(tert-butyl)pyridin-3-yl)-4-methyl-6-oxo-3,4-dihydro-2H,6H-pyrimido[2,1-b][1,3]thiazine-7-carbonitrile]	100 to 200	100 to 500	–
CC(C)(C)c1cc(-c2nc3n(c(=O)c2C#N)CCCS3)ccn1 [Example 179, 8-(2-tert-butylpyridin-4-yl)-6-oxo-2H,3H,4H,6H-pyrimido[2,1-b][1,3]thiazine-7-carbonitrile]	100 to 200	10 to 100	–
CC(C)(C)c1ccc(-c2nc3n(c(=N)c2C#N)CCCS3)cn1 [Example 38, 8-(6-(tert-butyl)pyridin-3-yl)-6-imino-3,4-dihydro-2H,6H-pyrimido[2,1-b][1,3]thiazine-7-carbonitrile]	100 to 200	> 1000	–
CC(C)(C)c1ccc(-c2nc3n(/c(=N\C(=O)C(F)(F)F)c2C#N)CCCS3)cc1 [Example 43, (Z)—N-(8-(4-(tert-butyl)phenyl)-7-cyano-3,4-dihydro-2H,6H-pyrimido[2,1-b][1,3]thiazin-6-ylidene)-2,2,2-trifluoroacetamide]	10 to 50	100 to 500	–
CC(C)(C)c1ccc(-c2nc3n(c(=O)c2C#N)CCS3)cc1 [Example 205, 7-(4-tert-butylphenyl)-5-oxo-2H,3H,5H-[1,3]thiazolo[3,2-a]pyrimidine-6-carbonitrile]	100 to 200	100 to 500	–
CC(C)(C)c1ccc(-c2nc3n(c(=O)c2C#N)C(c2ccccc2)CCS3)cc1 (stereo not shown) [Example 202, 8-(4-tert-butylphenyl)-3,4-dihydro-4-phenyl-6-oxo-2H,6H-pyrimido[2,1-b][1,3]thiazine-7-carbonitrile]	10 to 50	–	Inhibitor
CC1CSc2nc(-c3ccc(C(C)(C)C)nc3)c(C#N)c(=O)n2C1 (stereo not shown) [Example 175, 8-(6-tert-butylpyridin-3-yl)-3-methyl-6-oxo-2H,3H,4H,6H-pyrimido[2,1-b][1,3]thiazine-7-carbonitrile]	100 to 200	> 1000	–
CC1CCSc2nc(-c3ccc(C(C)(C)C)cc3)c(C#N)c(=O)n21 (stereo not shown) [Example 201, 8-(4-tert-butylphenyl)-3,4-dihydro-4-methyl-6-oxo-2H,6H-pyrimido[2,1-b][1,3]thiazine-7-carbonitrile]	100 to 200	10 to 100	–
CC(C)(C)c1ccc(-c2nc3n(c(=O)c2C#N)CCCS3)cc1 [Example 184, 8-(4-tert-butylphenyl)-3,4-dihydro-6-oxo-2H,6H-pyrimido[2,1-b][1,3]thiazine-7-carbonitrile]	100 to 200	> 1000	–
CN(C)C(=O)/N=c1/c(C#N)c(-c2ccc(C(C)(C)C)cc2)nc2n1CCCS2 [Example 42, (Z)-3-(8-(4-(tert-butyl)phenyl)-7-cyano-3,4-dihydro-2H,6H-pyrimido[2,1-b][1,3]thiazin-6-ylidene)-1,1-dimethylurea]	100 to 200	100 to 500	–
CC1CSc2nc(-c3ccc(N(C)C)nc3)c(C#N)c(=O)n2C1 (stereo not shown) [Example 67, 8-[6-(dimethylamino)pyridin-3-yl]-3-methyl-6-oxo-2H,3H,4H,6H-pyrimido[2,1-b][1,3]thiazine-7-carbonitrile]	50 to 100	100 to 500	–
CC(C)(C)c1ccc(-c2nc3n(c(=N)c2C#N)CCCS3)cc1 [Example 36, 8-(4-(tert-butyl)phenyl)-6-imino-3,4-dihydro-2H,6H-pyrimido[2,1-b][1,3]thiazine-7-carbonitrile]	100 to 200	500 to 1000	–
C/N=c1/c(C#N)c(-c2ccc(C(C)(C)C)cc2)nc2n1CCCS2 [Example 37, (Z)-8-(4-(tert-butyl)phenyl)-6-(methylimino)-3,4-dihydro-2H,6H-pyrimido[2,1-b][1,3]thiazine-7-carbonitrile]	> 200	500 to 1000	–
Cc1nc(C(C)(C)C)ccc1-c1nc2n(c(=O)c1C#N)CCCS2 [Example 182, 8-(6-tert-butyl-2-methylpyridin-3-yl)-6-oxo-2H,3H,4H,6H-pyrimido[2,1-b][1,3]thiazine-7-carbonitrile]	100 to 200	10 to 100	–
CC(C)(C)c1ccc(-c2nc3n(c(=O)c2C#N)CCCS3)cn1 [Example 174, 8-(6-tert-butyl-3-pyridinyl)-3,4-dihydro-6-oxo-2H,6H-pyrimido[2,1-b][1,3]thiazine-7-carbonitrile]	100 to 200	500 to 1000	–
CC(C)(C)c1ccc(-c2nc3n(c(=O)c2C#N)CC2(COC2)CS3)cc1 [Example 204, 8′-(4-tert-butylphenyl)-6′-oxo-4′,6′-dihydro-2′H-spiro[oxetane-3,3′-pyrimido[2,1-b][1,3]thiazine]-7′-carbonitrile]	10 to 50	10 to 100	–
N#Cc1c(-c2ccc(C(F)(F)F)nc2)nc2n(c1=O)CCCS2 [Example 48, 6-oxo-8-(6-(trifluoromethyl)pyridin-3-yl)-3,4-dihydro-2H,6H-pyrimido[2,1-b][1,3]thiazine-7-carbonitrile]	10 to 50	< 10	–
N#Cc1c(-c2ccc(C3CC3)nc2)nc2n(c1=O)CCCS2 [Example 181, 8-(6-cyclopropylpyridin-3-yl)-6-oxo-2H,3H,4H,6H-pyrimido[2,1-b][1,3]thiazine-7-carbonitrile]	100 to 200	10 to 100	–
